In the supplement of paper PMC10307832:

Key:
Experiment in all cases: relative viability (nuclei count vs DMSO), 5 days (fraction); higher = more cells survive
[1] = compound: CCOC(=O)CCNc1cc(N2CCc3ccccc3CC2)nc(-c2ccccn2)n1 [GSK-J4] + COc1cc2c(Oc3ccc(NC(=O)C4(C(=O)Nc5ccc(F)cc5)CC4)cc3F)ccnc2cc1OCCCN1CCOCC1 [Foretinib] (partner 0.25 µM)
Summary of the method: (§1)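 Medians of duplicate plates are given as relative viability. That measure is the nuclei count in treated wells divided by the count in vehicle wells. Counts were taken on 4× images of lung cancer cell lines in 1536-well plates, 5 days after pin-tool dosing the day after seeding with one drug alone or a fixed anchor-drug dose plus five library-drug doses (not always all listed) in √10 steps.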

[2] = compound: CCOC(=O)CCNc1cc(N2CCc3ccccc3CC2)nc(-c2ccccn2)n1 [GSK-J4] + O=C(CCCCCCC(=O)Nc1ccccc1)NO [Vorinostat] (partner 1 µM)
Summary of the method: as §1

[3] = compound: CN1CCC(CC1)OC2=CC(=C(C=C2)NC3=NC=C4C(=N3)N(C(=O)N4C)C5CCCC5)OC [AZ3146] + CC(=O)Nc1cccc(-n2c(=O)n(C3CC3)c(=O)c3c(Nc4ccc(I)cc4F)n(C)c(=O)c(C)c32)c1 [Trametinib] (partner 0.02 µM)
Summary of the method: as §1

[4] = compound: CN1CCC(CC1)OC2=CC(=C(C=C2)NC3=NC=C4C(=N3)N(C(=O)N4C)C5CCCC5)OC [AZ3146] + CC1(C)CCC(c2ccc(Cl)cc2)=C(CN2CCN(c3ccc(C(=O)NS(=O)(=O)c4ccc(N[C@H](CCN5CCOCC5)CSc5ccccc5)c(S(=O)(=O)C(F)(F)F)c4)cc3)CC2)C1 [Navitoclax] (partner 0.5 µM)
Summary of the method: as §1

Cell Line	relative viability ([1]; first compound 0.5 µM)	relative viability ([1]; first compound 1.581 µM)	relative viability ([1]; first compound 5 µM)	relative viability ([1]; first compound 15.81 µM)	relative viability ([1]; first compound 50 µM)	relative viability ([2]; first compound 0.5 µM)	relative viability ([2]; first compound 1.581 µM)	relative viability ([2]; first compound 5 µM)	relative viability ([2]; first compound 15.81 µM)	relative viability ([2]; first compound 50 µM)	relative viability ([3]; first compound 0.08 µM)	relative viability ([3]; first compound 0.253 µM)	relative viability ([3]; first compound 0.8 µM)	relative viability ([3]; first compound 2.53 µM)	relative viability ([3]; first compound 8 µM)	relative viability ([4]; first compound 0.08 µM)	relative viability ([4]; first compound 0.253 µM)	relative viability ([4]; first compound 0.8 µM)	relative viability ([4]; first compound 2.53 µM)	relative viability ([4]; first compound 8 µM)
LXF-289	0.974	0.93	1.01	0.929	0.924	0.821	0.631	0.874	0.692	0.653	0.629	0.688	0.633	0.651	0.633	0.94	1.03	0.883	0.943	0.926
NCI-H23	0.999	0.885	0.942	0.802	0.847	0.596	0.411	0.583	0.473	0.506	0.455	0.354	0.391	0.422	0.402	0.751	0.687	0.786	0.86	0.993
NCI-H322M	1.01	0.884	1.27	0.815	0.712	0.877	0.964	1.11	0.84	0.928	0.555	0.45	0.435	0.537	0.527	1.24	1.12	1.1	1.24	1.23
NCI-H441	0.962	0.875	1.1	0.906	0.759	0.716	0.602	0.779	0.714	0.715	0.512	0.438	0.429	0.501	0.362	0.416	0.576	0.53	0.547	0.683
NCI-H460	0.977	0.81	0.732	1	0.871	0.663	–	0.623	0.67	0.656	0.132	0.134	0.0913	0.0867	0.107	1.1	1.21	1.14	1.08	0.298
NCI-H520	0.691	0.689	0.811	0.613	0.626	0.644	0.527	0.69	0.659	0.648	0.643	0.691	0.54	0.677	0.49	1.18	1.06	1.04	1.1	0.981
NCI-H596	0.928	0.657	0.892	0.673	0.823	0.743	0.475	0.654	0.503	0.365	0.806	0.643	0.766	0.89	0.919	1.02	0.884	0.9	0.95	0.929
NCI-H647	1.1	0.855	1.07	1.2	1.09	0.59	0.719	0.553	0.646	0.43	0.365	0.44	0.366	0.476	0.317	1.06	1.07	1.16	1.1	0.893
NCI-H727	0.808	0.835	1.03	0.99	0.518	1.13	0.991	1.45	1.03	0.758	0.359	0.365	0.335	0.417	0.364	0.501	0.476	0.431	0.436	0.413
NCI-H838	1.03	1.02	–	0.853	0.738	0.721	0.717	0.401	0.695	0.57	0.553	0.467	0.462	0.481	0.227	1.12	1.19	1.17	1.13	0.93
NCI-H1355	0.878	0.837	1.08	0.839	0.859	0.654	0.588	0.51	0.478	0.469	0.441	0.429	0.435	0.435	0.439	0.974	0.872	1.04	0.922	1.01
NCI-H1395	0.937	0.983	0.865	0.973	0.946	1.11	0.813	0.625	0.594	0.62	0.999	1.08	–	1.07	1.09	1.21	0.924	0.985	1.09	1.18
NCI-H1437	1.29	0.715	1.23	1.24	0.766	0.827	0.608	0.715	0.706	0.305	0.445	0.48	0.511	0.489	0.361	1.02	1.09	1.07	1.13	1.14
NCI-H1650	1.07	0.456	1.18	1.03	0.949	0.567	0.501	0.663	0.48	0.286	0.594	0.546	0.602	0.492	0.414	1.21	1.34	1.26	1.38	1.19
NCI-H1651	0.765	0.905	0.922	0.663	0.8	0.607	0.537	0.558	0.448	0.464	0.736	0.779	0.833	0.789	0.797	1.03	1.07	1	0.995	1.1
NCI-H1666	0.998	0.742	1.08	0.907	0.749	0.956	0.931	0.97	1.01	0.737	0.848	0.875	0.851	0.887	0.761	0.859	0.805	0.951	1.05	0.81

Cell Line	relative viability ([1]; first compound 0.5 µM)	relative viability ([1]; first compound 1.581 µM)	relative viability ([1]; first compound 5 µM)	relative viability ([1]; first compound 15.81 µM)	relative viability ([1]; first compound 50 µM)	relative viability ([2]; first compound 0.5 µM)	relative viability ([2]; first compound 1.581 µM)	relative viability ([2]; first compound 5 µM)	relative viability ([2]; first compound 15.81 µM)	relative viability ([2]; first compound 50 µM)	relative viability ([3]; first compound 0.08 µM)	relative viability ([3]; first compound 0.253 µM)	relative viability ([3]; first compound 0.8 µM)	relative viability ([3]; first compound 2.53 µM)	relative viability ([3]; first compound 8 µM)	relative viability ([4]; first compound 0.08 µM)	relative viability ([4]; first compound 0.253 µM)	relative viability ([4]; first compound 0.8 µM)	relative viability ([4]; first compound 2.53 µM)	relative viability ([4]; first compound 8 µM)
NCI-H1734	0.821	0.787	0.849	0.707	0.619	0.749	0.788	0.609	0.645	0.5	0.641	0.663	0.594	0.662	0.62	0.821	0.828	0.831	0.847	0.846
NCI-H1755	0.906	0.817	0.861	0.878	0.837	0.675	0.638	0.694	0.577	0.536	0.674	0.787	0.714	0.783	0.785	0.992	1	0.948	1.03	1.01
NCI-H1793	0.801	0.575	0.737	0.423	0.514	0.942	0.586	0.663	0.358	0.284	0.374	0.419	0.393	0.515	0.418	0.437	0.311	0.46	0.492	0.436
NCI-H1915	1.04	1.03	–	1.06	0.523	0.452	0.481	–	0.417	0.483	0.312	0.303	0.294	0.306	0.319	0.783	0.807	0.807	0.816	0.814
NCI-H1944	0.934	0.872	1.01	0.747	0.759	0.566	0.477	–	0.419	0.427	0.375	0.424	0.435	0.45	0.459	–	1.02	1	1.13	1.15
NCI-H1975	0.947	0.785	0.732	0.95	1.04	0.662	0.689	0.637	0.632	0.71	0.315	0.351	0.29	0.348	0.306	1.19	1.18	1.14	1.17	1.01
NCI-H1993	0.789	0.74	0.796	0.556	0.549	1.15	0.708	0.804	0.601	0.409	0.562	0.508	0.472	0.519	0.469	0.972	0.935	0.993	0.929	0.898
NCI-H2009	1.17	1.19	–	1.2	0.986	0.731	0.622	0.56	0.682	0.259	0.286	0.301	0.271	0.273	0.238	1.02	1.27	1.2	1.25	1.03
NCI-H2023	0.759	0.737	1.11	0.735	0.709	0.59	0.497	0.545	0.514	0.283	0.55	0.473	0.616	0.538	0.442	0.887	1.08	1.06	1.04	0.652
NCI-H2085	0.697	0.882	0.861	1.05	0.971	0.767	0.731	0.697	0.634	0.728	0.495	0.57	0.506	1.03	0.403	1.03	1.14	1.06	1.08	1.03
NCI-H2087	0.973	–	1.13	1.1	0.818	0.638	0.68	0.544	0.842	0.811	0.201	0.196	0.214	0.214	0.182	1.04	1.06	1.08	1.05	0.968
NCI-H2126	1.06	1.05	1.14	0.889	0.795	0.762	0.659	0.872	0.572	0.567	0.58	0.553	0.503	0.534	0.547	0.8	0.843	0.896	0.861	0.849
NCI-H2170	0.949	0.983	0.917	1.02	0.958	0.813	0.677	0.803	0.638	0.761	0.888	1.04	0.861	0.928	0.859	0.705	0.528	0.632	0.576	0.645
NCI-H2228	0.764	1.03	0.854	0.817	1.06	0.642	0.873	0.823	0.617	0.797	0.415	0.539	0.33	0.44	0.455	0.901	0.8	0.961	0.935	0.845
NCI-H2347	1.16	0.716	1.06	0.843	0.826	0.605	0.558	0.586	0.518	0.538	0.295	0.308	0.326	0.293	0.326	0.76	0.763	0.594	0.88	0.833
NCI-H2405	1.06	0.948	–	0.98	1.04	0.973	0.925	–	0.923	0.974	0.731	0.537	0.666	0.663	0.676	0.836	–	1	0.859	1.08
